In publication PMC7177633, “Effective Cellular Transport of Ortho-Halogenated Sulfonamide Derivatives of Metformin Is Related to Improved Antiproliferative Activity and Apoptosis Induction in MCF-7 Cells” (International Journal of Molecular Sciences, 2020):
“And” between values parts separate entries of the source, which are not always exact repeats. Equal values may be shown once. Read-outs that look alike come from different tables or passages of the source.

Key:
MDA-MB-231 cells [1] = assay: Uptake in the presence of OCT and MATE inhibitors, MDA-MB-231 cells; format: in vitro ADME, human
Protocol: (§1) The uptake of sulfonamide derivatives of metformin (1–9) in MCF-7 and MDA-MB-231 cells was studied also in the presence of disopyramide, cimetidine (OCT1 and 3 inhibitors), lopinavir (OCT and PMAT inhibitor) and methenamine (MATE and OCT2 inhibitors). The cells were incubated (37 °C, 10 min) with compounds 1–9 at concentrations of 400 and 800 μmol/L and inhibitors (disopyramide, cimetidine, lopinavir or methenamine) in 250 μL of prewarmed HBSS buffer. The protocol of determination of the compound concentration was as described above.

MDA-MB-231 cells [2] = assay: Cellular uptake of metformin sulfonamides in MDA-MB-231 cells (HPLC); format: in vitro ADME, human
Protocol: (§2) The uptake of metformin sulfonamides (1–9) in MCF-7 and MDA-MB-231 cells was studied by incubation of the cells with 10−3000 μmol/L of compounds in 250 μL of prewarmed HBSS buffer at 37 °C for 10 min. Subsequently, the cells were then washed three times with 500 μL of ice-cold HBSS and lysed with 250 μL of 0.1-M NaOH. The samples were collected, centrifuged (5 min, 1400 rpm) and the supernatants were analyzed by the HPLC method. The concentration of each compound in the cells was calculated on the basis of the standard curve prepared by spiking known amounts of every compound on the cell layers in 250 μL of 0.1-M NaOH.
(§3) The concentration of the studied sulfonamides (1–9) was assessed using the HPLC system, consisting of an Agilent 1100 binary pump (Agilent Technologies Inc., Wilmington, DE, USA), an 1100 micro-vacuum degasser, an HP 1050 autosampler and an HP 1050 variable wavelength detector (operated at 235 nm). The chromatographic separations of compounds 1–9 were conducted on an Agilent Zorbax SB-C18 analytical column (4.6 mm × 150 mm, 5 μm) using an isocratic elution of water containing 0.1% formic acid (pH ca. 3.0) and acetonitrile containing 0.1% formic acid with a changing ratio, depending on the compound. The analyses were conducted at room temperature (RT). The detailed procedure of chromatographic analysis was described in our previous paper. The studies were conducted in quadruplicates.
(§4) The protein concentrations in representative wells of each plate were assessed using a Bio-Rad protein assay according to the Bradford method (EnVision, PerkinElmer, Inc., Waltham, MA, USA).

MCF-7 cells [3] = assay: Cell viability WST-1 assay, MCF-7; format: cell-based; conditions: Homo sapiens, MCF7; WST-1, 24 h, mean ± SD (n = 6–8); read-out: IC50 inhibition of MCF-7 cells' viability
Protocol: (§5) The viability of MCF-7 and MDA-MB-231 cells was determined using a colorimetric WST-1 assay (Takara, Takara Bio Europe, Saint-Germain-en-Laye, France). Both cell lines were seeded at a density of 1 × 10^4 per well on 96-well plates and were cultured for 24 h to obtain 70% confluence. The following day, the cells were treated with various concentrations of compounds 1–9 diluted in the cell culture medium ([…]). The cells were incubated with tested compounds or pure medium (control) for 24 h (37 °C, 5% CO2). Afterwards, the cells were washed with 100 μL of culture medium, and then, the reagent dissolved in the medium was added (100 μL). The plates were incubated at the standard condition for 1.5 h, and the absorbance was read at 450 nm using a microplate reader (iMARK, Bio-Rad, Bio-Rad Laboratories Inc., Hercules, CA, USA). […] The results of samples treated with the test compounds were expressed as a percentage of the control samples. The data were presented as mean ± standard deviation (SD), n = 8. IC50 values (the concentration of the tested compound that inhibited cell growth by 50%) were calculated using a concentration-response curve (GraphPad Prism, Software, San Diego, CA, USA).
(§6) The concentrations contributing to the 50% of cell growth inhibition (IC50) were calculated using nonlinear regression analysis (fitting the curve to log (concentration) vs. cellular response).

HUVECs = system: HUVECs; set-up: method as in PMID 31776031; conditions: concentration range 10–3000 µmol/L; read-out: IC50 viability of HUVECs; cited from earlier work
MDA-MB-231 cells [4] = assay: Cell viability WST-1 assay, MDA-MB-231; format: cell-based; conditions: Homo sapiens, MDA-MB-231; WST-1, 24 h, mean ± SD (n = 6–8); read-out: IC50 inhibition of MDA-MB-231 cells' viability
Protocol: as §5, §6

MCF-7 cells [5] = assay: Uptake in the presence of OCT and MATE inhibitors, MCF-7 cells; format: in vitro ADME, human
Protocol: as §1

AoSMC = system: AoSMC; set-up: method as in PMID 31776031; conditions: concentration range 10–3000 µmol/L; read-out: IC50 viability of AoSMCs; cited from earlier work
OCTs = assay: Inhibition of [14C]choline uptake in MDA-MB-231 cells (competitive inhibition assay); format: cell-based, human; conditions: mean ± SD (n = 3)
Protocol: The following day, after removal of the culture medium, the cells were carefully washed with prewarmed HBSS (Hanks’ balanced salt solution) containing 125 mM NaCl, 4.8 mM KCl, 1.2 mM MgSO4, 1.2 mM KH2PO4, 1.3 mM CaCl2, 5.6 mM glucose and 25 mM HEPES (pH 7.4). […] Then, the cells were washed three times with ice-cold HBSS (500 μL) and were lysed with 250 μL of 0.1-M NaOH in the ice bath, and the lysate was mixed with 1.0 mL of an emulsifier safe cocktail (PerkinElmer, Waltham, MA, USA). The radioactivity was measured by liquid scintillation counting (MicroBeta^2 counter, PerkinElmer, Waltham, MA, USA). The studies were carried out with the use of at least three replicates from the same cell passage.

MCF-7 cells [6] = assay: Cellular uptake of metformin sulfonamides in MCF-7 cells (HPLC); format: in vitro ADME, human
Protocol: as §2, §3, §4

[7] = compound and inhibitor 400 and 800 µmol/L, 10 min, 37 °C
[8] = summary from uptake with inhibitors
[9] = 800 μmol/L, 10 min incubation, 37 °C
[10] = Eadie-Hofstee analysis, transporter I
[11] = Eadie-Hofstee analysis, transporter II

## CN(C)C(=N)N=C(N)NS(=O)(=O)c1ccc(Cl)cc1 [Compound 3]
MDA-MB-231 cells [1]; [7]
  uptake in the presence of disopyramide, MDA-MB-231: significantly lower uptake
  uptake in the presence of lopinavir, MDA-MB-231: increased uptake
  uptake in the presence of methenamine, MDA-MB-231: increased uptake
MDA-MB-231 cells [1]; [8]
  interactions with OCT, PMAT and MATE1 transporters, MDA-MB-231: OCT1, PMAT, MATE1
MDA-MB-231 cells [2]; [9]
  uptake into MDA-MB-231 cells: 0.42 ± 0.15 nmol/min/mg protein
MDA-MB-231 cells [2]; [10]
  Vmax, transporter I, MDA-MB-231: 1.390 ± 0.23 nmol/min/mg
MDA-MB-231 cells [2]; Eadie-Hofstee analysis, transporter I, read-out: Km, transporter I, MDA-MB-231
  Km: 2.37 ± 0.48 mM
MDA-MB-231 cells [2]; [11]
  Vmax, transporter II, MDA-MB-231: 2.20 ± 0.41 nmol/min/mg
MDA-MB-231 cells [2]; Eadie-Hofstee analysis, transporter II, read-out: Km, transporter II, MDA-MB-231
  Km: 4.67 ± 0.932 mM
MDA-MB-231 cells [2]; fold lower in MDA-MB-231 than in MCF-7
  transport efficacy (Vmax/Km) in MCF-7 relative to MDA-MB-231: 2.4–3.2 fold
MCF-7 cells [3]
  IC50: 1430 ± 135 µM
HUVECs
  IC50: 1770 ± 120 µM
MDA-MB-231 cells [4]
  IC50: 1040 ± 134 µM
MCF-7 cells [5]; [7]
  uptake in the presence of cimetidine, MCF-7: did not change
  uptake in the presence of disopyramide, MCF-7: did not change
  uptake in the presence of lopinavir, MCF-7: did not change
  uptake in the presence of methenamine, MCF-7: significant decrease
MCF-7 cells [5]; [8]
  interactions with OCT, PMAT and MATE1 transporters, MCF-7: OCT1,MATE1
AoSMC
  IC50: 1890 ± 110 µM
OCTs
  IC50: 3760 ± 124 µM
MCF-7 cells [6]; [9]
  uptake into MCF-7 cells: 0.84 ± 0.06 nmol/min/mg protein
MCF-7 cells [6]; [10]
  Vmax, transporter I, MCF-7: 1.61 nmol/min/mg and 1.614 ± 0.11 nmol/min/mg
MCF-7 cells [6]; Eadie-Hofstee analysis, transporter I, read-out: Km, transporter I, MCF-7
  Km: 0.813 ± 0.0865 mM
MCF-7 cells [6]; [11]
  Vmax, transporter II, MCF-7: 10.76 ± 0.88 nmol/min/mg
MCF-7 cells [6]; Eadie-Hofstee analysis, transporter II, read-out: Km, transporter II, MCF-7
  Km: 8.81 ± 0.791 mM
MCF-7 cells [6]; Michaelis-Menten curve
  Vmax MCF-7 (Michaelis Menten curves): 5.073 ± 1.96 nmol/min/mg
MCF-7 cells [6]; Michaelis-Menten curve, read-out: Km MCF-7 (Michaelis Menten curves)
  Km: 3.58 ± 1.71 mM
